Data published in patent US20240050428A1 (Cullgen (Shanghai), Inc., priority 2020, published 2024).
pIC50: −log10 of the molar value. Where two headings read alike, the source gives them in different places.

How the values were obtained:
[1] = tested on: MV4;11 cells; experiment: Cell viability assay (CellTiter-Glo) in MV4;11 cells, alone or with gilteritinib; type: cell-based; conditions: Homo sapiens, MV4;11 cells, three days, CellTiter-Glo, read-out: MV4
[2] = tested on: MOLM-13 cells; experiment: Cell viability assay (CellTiter-Glo) in MOLM-13 cells, alone or with gilteritinib; type: cell-based; conditions: Homo sapiens, MOLM-13 cells, three days, CellTiter-Glo
[3] = MV4-11, 72 h, compound alone (without gilteritinib), 11 IC50
[4] = MV4-11, 72 h, compound with gilteritinib 10 nM, 11 IC50 gilteritinib
[5] = MOLM-13, 72 h, compound alone (without gilteritinib), read-out: MOLM-13 IC50
[6] = MOLM-13, 72 h, compound with gilteritinib 20 nM, read-out: MOLM-13 IC50 gilteritinib

Row | pIC50 [1, 3] | pIC50 [1, 4] | pIC50 [2, 5] | pIC50 [2, 6] | SMILES | pIC50 ([1]; 72 h, compound alone (without gilteritinib), 11 IC50) | pIC50 ([1]; 72 h, compound with gilteritinib 10 nM, 11 IC50 gilteritinib) | pIC50 ([2]; 72 h, compound alone (without gilteritinib), read-out: MOLM-13 IC50) | pIC50 ([2]; 72 h, compound with gilteritinib 20 nM, read-out: MOLM-13 IC50 gilteritinib)
1 | 6.00 to 7.00 | 7.00 to 8.00 | 6.00 to 7.00 | 7.00 to 8.00 | O=C1CCC(N2C(=O)c3ccc(NCCCCCCn4cc(-c5cnc6cc(Br)ccc6n5)cn4)cc3C2=O)C(=O)N1 (stereo not shown) [GS-517, 5-((6-(4-(6-Bromoquinoxalin-2-yl)-1H-pyrazol-1-yl)hexyl)amino)-2-(2,6-dioxopiperidin-3-yl)isoindoline-1,3-dione] |  |  |  | 
2 | 7.00 to 8.00 | > 8.00 | 6.00 to 7.00 | > 8.00 | O=C(CCC(F)(F)C(=O)N1CCC(n2cc(-c3cnc4ccccc4n3)cn2)CC1)NCc1ccc2c(c1)CN(C1CCC(=O)NC1=O)C2=O (stereo not shown) [GS-518, N-((2-(2,6-Dioxopiperidin-3-yl)-1-oxoisoindolin-5-yl)methyl)-4,4-difluoro-5-oxo-5-(4-(4-(quinoxalin-2-yl)-1H-pyrazol-1-yl)piperidin-1-yl)pentanamide] |  |  |  | 
3 | < 6.00 | < 6.00 | < 6.00 | < 6.00 | O=C1CCC(N2Cc3ccc(NCCCCCn4cc(-c5cnc6ccccc6n5)cn4)cc3C2=O)C(=O)N1 (stereo not shown) [GS-519, 3-(1-Oxo-6-((5-(4-(quinoxalin-2-yl)-1H-pyrazol-1-yl)pentyl)amino)isoindolin-2-yl)piperidine-2,6-dione] |  |  |  | 
4 | > 8.00 | > 8.00 | > 8.00 | > 8.00 | O=C1CCC(N2C(=O)c3ccc(NCCCCC(F)(F)C(=O)N4CCC(n5cc(-c6cnc7ccccc7n6)cn5)CC4)cc3C2=O)C(=O)N1 (stereo not shown) [GS-520, 5-((5,5-difluoro-6-oxo-6-(4-(4-(quinoxalin-2-yl)-1H-pyrazol-1-yl)piperidin-1-yl)hexyl)amino)-2-(2,6-dioxopiperidin-3-yl)isoindoline-1,3-dione] |  |  |  | 
5 | 6.00 to 7.00 | 7.00 to 8.00 | < 6.00 | > 8.00 | O=C1CCC(N2C(=O)c3ccc(NCCCCCCn4cc(-c5nc6ccccc6nc5C(F)(F)F)cn4)cc3C2=O)C(=O)N1 (stereo not shown) [GS-522, 2-(2,6-Dioxopiperidin-3-yl)-5-((6-(4-(3-(trifluoromethyl)quinoxalin-2-yl)-1H-pyrazol-1-yl)hexyl)amino)isoindoline-1,3-dione] |  |  |  | 
6 |  |  |  |  | CC(C)c1nc2ccccc2nc1-c1cnn(CCCCCCNc2ccc3c(c2)C(=O)N(C2CCC(=O)NC2=O)C3=O)c1 (stereo not shown) [GS-523, 2-(2,6-Dioxopiperidin-3-yl)-5-((6-(4-(3-isopropylquinoxalin-2-yl)-1H-pyrazol-1-yl)hexyl)amino)isoindoline-1,3-dione] | < 6.00 | 6.00 to 7.00 | < 6.00 | 6.00 to 7.00
7 | 6.00 to 7.00 | 6.00 to 7.00 | < 6.00 | 7.00 to 8.00 | O=C1CCC(N2C(=O)c3ccc(NC4CC(n5cc(-c6cnc7ccccc7n6)cn5)C4)cc3C2=O)C(=O)N1 (stereo not shown) [GS-524, 2-(2,6-Dioxopiperidin-3-yl)-5-((3-(4-(quinoxalin-2-yl)-1H-pyrazol-1-yl)cyclobutyl)amino)isoindoline-1,3-dione] |  |  |  | 
8 | > 8.00 | > 8.00 | 7.00 to 8.00 | > 8.00 | O=C1CCC(N2C(=O)c3ccc(NCCCCCC(=O)N4CCC(n5cc(-c6cnc7ccc(C8=CCNCC8)cc7n6)cn5)CC4)cc3C2=O)C(=O)N1 (stereo not shown) [GS-525, 2-(2,6-Dioxopiperidin-3-yl)-5-((6-oxo-6-(4-(4-(7-(1,2,3,6-tetrahydropyridin-4-yl)quinoxalin-2-yl)-1H-pyrazol-1-yl)piperidin-1-yl)hexyl)amino)isoindoline-1,3-dione] |  |  |  | 
9 | > 8.00 | > 8.00 | > 8.00 | > 8.00 | O=C1CCC(N2C(=O)c3ccc(NCCCCCC(=O)N4CCC(n5cc(-c6cnc7ccc(N8CCNCC8)cc7n6)cn5)CC4)cc3C2=O)C(=O)N1 (stereo not shown) [GS-526, 2-(2,6-Dioxopiperidin-3-yl)-5-((6-oxo-6-(4-(4-(7-(piperazin-1-yl)quinoxalin-2-yl)-1H-pyrazol-1-yl)piperidin-1-yl)hexyl)amino)isoindoline-1,3-dione] |  |  |  | 
10 | 6.00 to 7.00 | 6.00 to 7.00 | < 6.00 | 6.00 to 7.00 | O=C1CCC(N2C(=O)c3ccc(NC4CC5(C4)CC(n4cc(-c6cnc7ccccc7n6)cn4)C5)cc3C2=O)C(=O)N1 (stereo not shown) [GS-527, 2-(2,6-Dioxopiperidin-3-yl)-5-((6-(4-(quinoxalin-2-yl)-1H-pyrazol-1-yl)spiro[3.3]heptan-2-yl)amino)isoindoline-1,3-dione] |  |  |  | 
11 | > 8.00 | > 8.00 | > 8.00 | > 8.00 | O=C1CCC(N2C(=O)c3ccc(NCCCCCC(=O)N4CCC(n5cc(-c6cnc7ccc(N8CCOCC8)cc7n6)cn5)CC4)cc3C2=O)C(=O)N1 (stereo not shown) [GS-528, 2-(2,6-Dioxopiperidin-3-yl)-5-((6-(4-(4-(7-morpholinoquinoxalin-2-yl)-1H-pyrazol-1-yl)piperidin-1-yl)-6-oxohexyl)amino)isoindoline-1,3-dione] |  |  |  | 
12 | 7.00 to 8.00 | > 8.00 | < 6.00 | > 8.00 | CN1CCN(c2ccc3ncc(-c4cnn(CCCCCCNc5ccc6c(c5)C(=O)N(C5CCC(=O)NC5=O)C6=O)c4)nc3c2)CC1 (stereo not shown) [GS-529, 2-(2,6-Dioxopiperidin-3-yl)-5-((6-(4-(7-(4-methylpiperazin-1-yl)quinoxalin-2-yl)-1H-pyrazol-1-yl)hexyl)amino)isoindoline-1,3-dione] |  |  |  | 
13 | 7.00 to 8.00 | > 8.00 | 7.00 to 8.00 | > 8.00 | O=C1CCC(N2C(=O)c3ccc(NCCCCCCn4cc(-c5cnc6ccc(N7CCOCC7)cc6n5)cn4)cc3C2=O)C(=O)N1 (stereo not shown) [GS-530, 2-(2,6-Dioxopiperidin-3-yl)-5-((6-(4-(7-morpholinoquinoxalin-2-yl)-1H-pyrazol-1-yl)hexyl)amino)isoindoline-1,3-dione] |  |  |  | 
14 | 7.00 to 8.00 | > 8.00 | 7.00 to 8.00 | > 8.00 | O=C1CCC(N2C(=O)c3ccc(NCCCCCCn4cc(-c5cnc6ccc(C7=CCNCC7)cc6n5)cn4)cc3C2=O)C(=O)N1 (stereo not shown) [GS-531, 2-(2,6-Dioxopiperidin-3-yl)-5-((6-(4-(7-(1,2,3,6-tetrahydropyridin-4-yl)quinoxalin-2-yl)-1H-pyrazol-1-yl)hexyl)amino)isoindoline-1,3-dione] |  |  |  | 
15 | 7.00 to 8.00 | > 8.00 | 6.00 to 7.00 | > 8.00 | O=C1CCC(N2C(=O)c3ccc(NCCCCCCn4cc(-c5cnc6ccc(N7CCNCC7)cc6n5)cn4)cc3C2=O)C(=O)N1 (stereo not shown) [GS-532, 2-(2,6-Dioxopiperidin-3-yl)-5-((6-(4-(7-(piperazin-1-yl)quinoxalin-2-yl)-1H-pyrazol-1-yl)hexyl)amino)isoindoline-1,3-dione] |  |  |  | 
16 | 6.00 to 7.00 | 7.00 to 8.00 | < 6.00 | < 6.00 | O=C1CCC(N2Cc3cc(CNC(=O)C(F)(F)CCC(=O)N4CCC(n5cc(-c6cnc7ccccc7n6)cn5)CC4)ccc3C2=O)C(=O)N1 (stereo not shown) [GS-533, N-((2-(2,6-dioxopiperidin-3-yl)-1-oxoisoindolin-5-yl)methyl)-2,2-difluoro-5-oxo-5-(4-(4-(quinoxalin-2-yl)-1H-pyrazol-1-yl)piperidin-1-yl)pentanamide] |  |  |  | 
17 | 7.00 to 8.00 | > 8.00 | 7.00 to 8.00 | > 8.00 | Cc1nn(CCCCCCNc2ccc3c(c2)C(=O)N(C2CCC(=O)NC2=O)C3=O)cc1-c1cnc2ccccc2n1 (stereo not shown) [GS-534, 2-(2,6-Dioxopiperidin-3-yl)-5-((6-(3-methyl-4-(quinoxalin-2-yl)-1H-pyrazol-1-yl)hexyl)amino)isoindoline-1,3-dione] |  |  |  | 
18 | 7.00 to 8.00 | 7.00 to 8.00 | < 6.00 | > 8.00 | Cc1c(-c2cnc3ccccc3n2)cnn1CCCCCCNc1ccc2c(c1)C(=O)N(C1CCC(=O)NC1=O)C2=O (stereo not shown) [GS-535, 2-(2,6-dioxopiperidin-3-yl)-5-((6-(5-methyl-4-(quinoxalin-2-yl)-1H-pyrazol-1-yl)hexyl)amino)isoindoline-1,3-dione] |  |  |  | 
19 | < 6.00 | 6.00 to 7.00 | < 6.00 | 7.00 to 8.00 | O=C1CCC(N2C(=O)c3ccc(NCCCCCCn4ccc(-c5cnc6ccccc6n5)n4)cc3C2=O)C(=O)N1 (stereo not shown) [GS-536, 2-(2,6-Dioxopiperidin-3-yl)-5-((6-(3-(quinoxalin-2-yl)-1H-pyrazol-1-yl)hexyl)amino)isoindoline-1,3-dione] |  |  |  | 
20 | 6.00 to 7.00 | 6.00 to 7.00 | < 6.00 | 7.00 to 8.00 | O=C1CCC(N2C(=O)c3ccc(NCCCCCCn4nccc4-c4cnc5ccccc5n4)cc3C2=O)C(=O)N1 (stereo not shown) [GS-537, 2-(2,6-dioxopiperidin-3-yl)-5-((6-(5-(quinoxalin-2-yl)-1H-pyrazol-1-yl)hexyl)amino)isoindoline-1,3-dione] |  |  |  | 
21 | 6.00 to 7.00 | 7.00 to 8.00 | 6.00 to 7.00 | 7.00 to 8.00 | O=C1CCC(N2C(=O)c3ccc(NCC4CC(n5cc(-c6cnc7ccccc7n6)cn5)C4)cc3C2=O)C(=O)N1 (stereo not shown) [GS-538, 2-(2,6-Dioxopiperidin-3-yl)-5-(((3-(4-(quinoxalin-2-yl)-1H-pyrazol-1-yl)cyclobutyl)methyl)amino)isoindoline-1,3-dione] |  |  |  | 
22 | < 6.00 | 6.00 to 7.00 | < 6.00 | 6.00 to 7.00 | O=C1CCC(N2C(=O)c3ccc(NCC4CC5(C4)CC(n4cc(-c6cnc7ccccc7n6)cn4)C5)cc3C2=O)C(=O)N1 (stereo not shown) [GS-539, 2-(2,6-Dioxopiperidin-3-yl)-5-(((6-(4-(quinoxalin-2-yl)-1H-pyrazol-1-yl)spiro[3.3]heptan-2-yl)methyl)amino)isoindoline-1,3-dione] |  |  |  | 
